In patent publication US11076594B2, “Pyrazolone compound or salt thereof, preparation method therefor, herbicide composition and use thereof” (QINGDAO KINGAGROOT CHEMICAL COMPOUNDS CO., LTD., priority 2015, dated 2021):

What was measured:
Format in all cases: in vivo
Details in all cases: post-emergence spray at 4-5 leaf stage, 250 g/ha active ingredient with 450 kg/ha water, rated after 3 weeks in greenhouse
[1] = test system: corn; test: post-emergence stage experiment, crop (Table 1)
Experimental: (§1) The activity level standard of harmful plant destruction (i.e. growth control rate) is as follows: The above described growth control rate is fresh weight control rate. Monocotyledonous and dicotyledonous weed seeds and main crop seeds (i.e. wheat, corn, rice, soybean, cotton, oilseed, millet and sorghum.) were put into a plastic pot loaded with soil. Then covered with 0.5-2 cm soil, the seeds were allowed to grow in good greenhouse environment. The test plants were treated at 4-5 leaf stage 2-3 weeks after sowing. The test compounds of the invention were dissolved with acetone respectively, then added with 80 tween and diluted by certain amount of water to certain concentration. The solution was sprayed to the plants with a sprayer. Then the plants were cultured for 3 weeks in the greenhouse.

[2] = test system: wheat; test: post-emergence stage experiment, crop (Table 1)
Experimental: as §1

[3] = test system: crab grass; test: weed control effect in post-emergence stage (Table 1); parameters: key: Level 10: completely dead; Level 9: above 95% growth control rate; Level 8: above 90% growth control rate; Level 7: above 80% growth control rate; Level 6: above 70% growth control rate; Level 5: above 60% growth control rate; Level 4: above 50% growth control rate; Level 3: above 20% growth control rate; Level 2: 5%-20% growth control rate; Level 1: below 5% growth control rate
Experimental: as §1

[4] = test system: Indian mallow; test: as above; parameters: key: Level 10: completely dead; Level 9: above 95% growth control rate; Level 8: above 90% growth control rate; Level 7: above 80% growth control rate; Level 6: above 70% growth control rate; Level 5: above 60% growth control rate; Level 4: above 50% growth control rate; Level 3: above 20% growth control rate; Level 2: 5%-20% growth control rate; Level 1: below 5% growth control rate
Experimental: as §1

[5] = test system: rorippa indica; test: as above; parameters: key: Level 10: completely dead; Level 9: above 95% growth control rate; Level 8: above 90% growth control rate; Level 7: above 80% growth control rate; Level 6: above 70% growth control rate; Level 5: above 60% growth control rate; Level 4: above 50% growth control rate; Level 3: above 20% growth control rate; Level 2: 5%-20% growth control rate; Level 1: below 5% growth control rate
Experimental: as §1

[6] = test system: echinochloa; test: as above; parameters: key: Level 10: completely dead; Level 9: above 95% growth control rate; Level 8: above 90% growth control rate; Level 7: above 80% growth control rate; Level 6: above 70% growth control rate; Level 5: above 60% growth control rate; Level 4: above 50% growth control rate; Level 3: above 20% growth control rate; Level 2: 5%-20% growth control rate; Level 1: below 5% growth control rate
Experimental: as §1

[7] = test system: foxtail; test: as above; parameters: key: Level 10: completely dead; Level 9: above 95% growth control rate; Level 8: above 90% growth control rate; Level 7: above 80% growth control rate; Level 6: above 70% growth control rate; Level 5: above 60% growth control rate; Level 4: above 50% growth control rate; Level 3: above 20% growth control rate; Level 2: 5%-20% growth control rate; Level 1: below 5% growth control rate
Experimental: as §1

[8] = test system: bidens bipinnata; test: as above; parameters: key: Level 10: completely dead; Level 9: above 95% growth control rate; Level 8: above 90% growth control rate; Level 7: above 80% growth control rate; Level 6: above 70% growth control rate; Level 5: above 60% growth control rate; Level 4: above 50% growth control rate; Level 3: above 20% growth control rate; Level 2: 5%-20% growth control rate; Level 1: below 5% growth control rate
Experimental: as §1

[9] = test system: rice; test: post-emergence stage experiment, crop (Table 1)
Experimental: as §1

SMILES | effect on crop, Corn (level) [1] | effect on crop, Wheat (level) [2] | weed control effect, Crab grass (level) [3] | weed control effect, Indian mallow (level) [4] | weed control effect, Rorippa indica (level) [5] | weed control effect, Echinochloa (level) [6] | weed control effect, Green foxtail (level) [7] | weed control effect, Bidens bipinnata (level) [8] | effect on crop, Rice (level) [9]
Cn1ncc(C(=O)c2ccc(C(F)(F)F)c(N3CCCC3=O)c2Cl)c1O [Compound 014] | 8 (Level 8: above 90% growth control rate) | 3 (Level 3: above 20% growth control rate) | 10 | 7 (Level 7: above 80% growth control rate) | 10 | 5 (Level 5: above 60% growth control rate) | 10 | 8 (Level 8: above 90% growth control rate) | 3 (Level 3: above 20% growth control rate)
CCOc1c(C(=O)Oc2c(C(=O)c3ccc(C(F)(F)F)c(N4CCCC4=O)c3Cl)cnn2C)cnn1C [Compound 015] | 9 (Level 9: above 95% growth control rate) | 2 (Level 2: 5%-20% growth control rate) | 9 (Level 9: above 95% growth control rate) | 8 (Level 8: above 90% growth control rate) | 9 (Level 9: above 95% growth control rate) | 5 (Level 5: above 60% growth control rate) | 10 | 8 (Level 8: above 90% growth control rate) | 2 (Level 2: 5%-20% growth control rate)
Cn1cc(C(=O)Oc2c(C(=O)c3ccc(C(F)(F)F)c(N4CCCC4=O)c3Cl)cnn2C)cn1 [Compound 017] | 4 (Level 4: above 50% growth control rate) | 1 (Level 1: below 5% growth control rate) | 10 | 10 | – | 6 (Level 6: above 70% growth control rate) | 10 | 5 (Level 5: above 60% growth control rate) | 7 (Level 7: above 80% growth control rate)
Cc1nn(C)c(OC(=O)c2cnn(C)c2)c1C(=O)c1ccc(C(F)(F)F)c(N2CCCCC2=O)c1Cl [Compound 039] | 2 (Level 2: 5%-20% growth control rate) | – | 9 (Level 9: above 95% growth control rate) | 10 | 10 | 10 | 10 | 2 (Level 2: 5%-20% growth control rate) | 6 (Level 6: above 70% growth control rate)
Cn1nc(C2CC2)c(C(=O)c2ccc(C(F)(F)F)c(N3CCCCCC3=O)c2Cl)c1O [Compound 059] | 1 (Level 1: below 5% growth control rate) | 2 (Level 2: 5%-20% growth control rate) | 5 (Level 5: above 60% growth control rate) | 10 | 10 | 6 (Level 6: above 70% growth control rate) | 9 (Level 9: above 95% growth control rate) | – | 3 (Level 3: above 20% growth control rate)
Cc1nn(C)cc1C(=O)Oc1c(C(=O)c2ccc(C(F)(F)F)c(N3CCCCCC3=O)c2Cl)c(C2CC2)nn1C [Compound 062] | 1 (Level 1: below 5% growth control rate) | 3 (Level 3: above 20% growth control rate) | 8 (Level 8: above 90% growth control rate) | 10 | 10 | 7 (Level 7: above 80% growth control rate) | 3 (Level 3: above 20% growth control rate) | – | 5 (Level 5: above 60% growth control rate)
Cn1cc(C(=O)Oc2c(C(=O)c3ccc(C(F)(F)F)c(-n4cccn4)c3Cl)cnn2C)cn1 [Compound 066] | 3 (Level 3: above 20% growth control rate) | 0 | 6 (Level 6: above 70% growth control rate) | 10 | – | 6 (Level 6: above 70% growth control rate) | 10 | 6 (Level 6: above 70% growth control rate) | 3 (Level 3: above 20% growth control rate)
Cc1nn(C)cc1C(=O)Oc1c(C(=O)c2ccc(C(F)(F)F)c(-n3cccn3)c2Cl)c(C2CC2)nn1C [Compound 075] | 3 (Level 3: above 20% growth control rate) | 2 (Level 2: 5%-20% growth control rate) | 4 (Level 4: above 50% growth control rate) | 10 | 10 | 6 (Level 6: above 70% growth control rate) | 10 | – | 7 (Level 7: above 80% growth control rate)
Cn1cc(C(=O)Oc2c(C(=O)c3ccc(C(F)(F)F)c(-n4cccn4)c3Cl)c(C3CC3)nn2C)cn1 [Compound 076] | 4 (Level 4: above 50% growth control rate) | 2 (Level 2: 5%-20% growth control rate) | 5 (Level 5: above 60% growth control rate) | 10 | – | 7 (Level 7: above 80% growth control rate) | 10 | 4 (Level 4: above 50% growth control rate) | 9 (Level 9: above 95% growth control rate)
Cc1cnn(-c2c(C(F)(F)F)ccc(C(=O)c3cnn(C)c3OC(=O)c3cnn(C)c3)c2Cl)c1 [Compound 083] | 4 (Level 4: above 50% growth control rate) | 0 | 6 (Level 6: above 70% growth control rate) | 10 | – | 6 (Level 6: above 70% growth control rate) | 8 (Level 8: above 90% growth control rate) | 5 (Level 5: above 60% growth control rate) | 2 (Level 2: 5%-20% growth control rate)
Cc1cnn(-c2c(C(F)(F)F)ccc(C(=O)c3c(C)nn(C)c3OC(=O)c3cnn(C)c3)c2Cl)c1 [Compound 087] | 4 (Level 4: above 50% growth control rate) | 0 | 9 (Level 9: above 95% growth control rate) | 10 | – | 6 (Level 6: above 70% growth control rate) | 10 | 5 (Level 5: above 60% growth control rate) | 6 (Level 6: above 70% growth control rate)
Cc1cnn(-c2c(C(F)(F)F)ccc(C(=O)c3c(C4CC4)nn(C)c3OC(=O)c3cnn(C)c3)c2Cl)c1 [Compound 091] | 1 (Level 1: below 5% growth control rate) | 1 (Level 1: below 5% growth control rate) | 2 (Level 2: 5%-20% growth control rate) | 10 | – | 6 (Level 6: above 70% growth control rate) | 7 (Level 7: above 80% growth control rate) | 5 (Level 5: above 60% growth control rate) | 6 (Level 6: above 70% growth control rate)
